Measured values taken from patent US10865384B2, “2,4,5-tri-substituted azole-based casein kinase 1 inhibitors as inducers for cardiomyogenesis” (AGENCY FOR SCIENCE, TECHNOLOGY AND RESEARCH, priority 2014, dated 2020).
Read-outs that look alike come from different tables or passages of the source.

Tests used:
CK1ϵ = CK1ϵ (Homo sapiens (Human), UniProt P49674); test: LanthaScreen Eu kinase binding assay, CK1ϵ
CK1δ = CK1δ (Homo sapiens (Human), UniProt P48730); test: LanthaScreen Eu kinase binding assay, CK1δ
p38α MAPK = p38α MAPK (Homo sapiens (Human), UniProt Q16539); test: HitHunter p38 MAP kinase binding assay
hESC3 Nkx2.5eGFP/w cells = test: Differentiation in 96-U bottom ultra-low attachment well plates, GFP area imaging; format: cell-based, human; details: 5 μM; for Average GFP %: after CHIR99021, read on day 14, GFP area over embryoid body size; for Average GFP μm^2 / Average Area μm^2: day 14; for Average Area μm^2: embryoid body size

Chain of p38α MAPK (Q16539 whole entry, looked up): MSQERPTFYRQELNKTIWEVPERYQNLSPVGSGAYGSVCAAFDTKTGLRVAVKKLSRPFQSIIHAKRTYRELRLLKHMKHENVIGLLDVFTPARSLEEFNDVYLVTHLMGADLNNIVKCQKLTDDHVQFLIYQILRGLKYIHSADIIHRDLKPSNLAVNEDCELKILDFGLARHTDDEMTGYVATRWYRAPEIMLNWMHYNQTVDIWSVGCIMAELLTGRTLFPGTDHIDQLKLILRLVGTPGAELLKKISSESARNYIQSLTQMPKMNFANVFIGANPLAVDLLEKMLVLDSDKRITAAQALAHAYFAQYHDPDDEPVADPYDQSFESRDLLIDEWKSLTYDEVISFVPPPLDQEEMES
Chain of CK1ϵ (P49674 whole entry): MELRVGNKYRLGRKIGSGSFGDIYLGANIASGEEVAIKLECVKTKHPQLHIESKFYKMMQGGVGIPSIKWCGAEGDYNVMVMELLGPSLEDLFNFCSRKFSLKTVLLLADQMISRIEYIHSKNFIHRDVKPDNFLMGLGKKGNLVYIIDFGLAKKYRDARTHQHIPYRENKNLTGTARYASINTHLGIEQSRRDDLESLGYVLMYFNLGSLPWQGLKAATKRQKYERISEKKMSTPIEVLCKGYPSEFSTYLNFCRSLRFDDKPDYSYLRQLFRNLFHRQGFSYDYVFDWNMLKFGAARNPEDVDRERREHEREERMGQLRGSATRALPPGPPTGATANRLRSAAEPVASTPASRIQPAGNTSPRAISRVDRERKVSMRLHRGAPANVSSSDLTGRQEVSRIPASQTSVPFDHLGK
Chain of CK1δ (P48730 whole entry): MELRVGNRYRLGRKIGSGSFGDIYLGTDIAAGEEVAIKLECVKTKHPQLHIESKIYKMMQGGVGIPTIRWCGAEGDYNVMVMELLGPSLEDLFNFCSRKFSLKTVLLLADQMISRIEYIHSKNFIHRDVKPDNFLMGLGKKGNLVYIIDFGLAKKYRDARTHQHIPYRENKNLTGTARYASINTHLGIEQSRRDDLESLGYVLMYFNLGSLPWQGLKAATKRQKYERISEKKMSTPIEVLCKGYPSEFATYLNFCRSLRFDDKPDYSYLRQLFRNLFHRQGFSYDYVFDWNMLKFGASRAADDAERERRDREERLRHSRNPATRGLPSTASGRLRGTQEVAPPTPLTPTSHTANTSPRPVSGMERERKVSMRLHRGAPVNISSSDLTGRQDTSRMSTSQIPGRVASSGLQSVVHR

Compound	inhibition at 1 µM (CK1δ)	IC50 (p38α MAPK; read-out: p38α MAPK IC50 ± SEM)	CK1ϵ inhibition at 1 μM (CK1ϵ)	IC50 (CK1ϵ; Table 3, read-out: IC50 Ck1ε)	IC50 (CK1ϵ; read-out: CK1ϵ IC50 ± SEM)	IC50 (CK1δ; Table 3, read-out: IC50 CK1δ)	IC50 (CK1δ; read-out: CK1δ IC50 ± SEM)	also measured
Cc1cccc(-c2nc(-c3ccc4ccccc4c3)[nH]c2-c2ccncc2)c1 [IM-01, 4-(2-(naphthalen-2-yl)-4(5)-(m-tolyl)-1H-imidazol-5(4)-yl)pyridine]	5%	0.098 ± 0.011 µM	–	–	–	–	–	inhibition at 1 µM (CK1ϵ): 6%
Fc1c(-c2nc(-c3cccc(C(F)(F)F)c3)c(-c3ccncc3)[nH]2)ccc2ccccc12 [IM-02, 4-(2-(1-fluoronaphthalen-2-yl)-4(5)-(3-(trifluoromethyl)phenyl)-1H-imidazol-5(4)-yl)pyridine]	–	2.66 ± 0.466 µM	No inhibition at 1 μM	–	–	–	–	CK1δ inhibition at 1 μM (CK1δ): No inhibition at 1 μM
Cc1cccc(-c2nc(-c3ccc4ccccc4c3F)[nH]c2C2=CCOCC2)c1 [IM-03, 5(4)-(3,6-dihydro-2H-pyran-4-yl)-2-(1-fluoronaphthalen-2-yl)-4(5)-(m-tolyl)-1H-imidazole]	–	0.262 ± 0.073 µM	No inhibition at 1 μM	–	–	–	–	CK1δ inhibition at 1 μM (CK1δ): No inhibition at 1 μM
Cc1cccc(-c2nc(-c3ccc4ccccc4c3F)[nH]c2-c2ccncc2)c1 [IM-04]	–	0.02 ± 0.007 µM	–	277 nM	277 ± 40 nM	490 nM	490 ± 66 nM	–
Cc1cccc(-c2nc(-c3ccccc3F)[nH]c2C2=CCOCC2)c1 [IM-06, 5(4)-(3,6-dihydro-2H-pyran-4-yl)-2-(2-fluorophenyl)-4(5)-(m-tolyl)-1H-imidazole]	3%	0.09 ± 0.02 µM	No inhibition at 1 μM	–	–	–	–	–
COc1ccc2cc(-c3nc(-c4cccc(C)c4)c(C4=CCOCC4)[nH]3)ccc2c1 [IM-09, 5(4)-(3,6-dihydro-2H-pyran-4-yl)-2-(6-methoxynaphthalen-2-yl)-4(5)-(m-tolyl)-1H-imidazole]	13%	2.35 ± 0.374 µM	No inhibition at 1 μM	–	–	–	–	–
Cc1cccc(-c2nc(-c3ccccc3)[nH]c2C2=CCOCC2)c1 [IM-11, 5(4)-(3,6-dihydro-2H-pyran-4-yl)-2-phenyl-4(5)-(m-tolyl)-1H-imidazole]	–	0.526 ± 0.137 µM	No inhibition at 1 μM	–	–	–	–	CK1δ inhibition at 1 μM (CK1δ): No inhibition at 1 μM
Cc1cccc(-c2nc(-c3ccccc3Cl)[nH]c2C2=CCOCC2)c1 [IM-12, 2-(2-chlorophenyl)-5(4)-(3,6-dihydro-2H-pyran-4-yl)-4(5)-(m-tolyl)-1H-imidazole]	23%	0.043 ± 0.002 µM	–	–	–	–	–	inhibition at 1 µM (CK1ϵ): 10%
Cc1cccc(-c2nc(-c3ccccc3Br)[nH]c2C2=CCOCC2)c1 [IM-13, 2-(2-bromophenyl)-5(4)-(3,6-dihydro-2H-pyran-4-yl)-4(5)-(m-tolyl)-1H-imidazole]	23%	0.019 ± 0.002 µM	–	–	–	–	–	inhibition at 1 µM (CK1ϵ): 23%
Cc1cccc(-c2nc(-c3ccccc3O)[nH]c2C2=CCOCC2)c1 [IM-14, 2-(5(4)-(3,6-dihydro-2H-pyran-4-yl)-4(5)-(m-tolyl)-1H-imidazol-2-yl)phenol]	–	–	–	–	–	–	–	inhibition at 1 µM (CK1ϵ): 3%; CK1δ inhibition at 1 μM (CK1δ): No inhibition at 1 μM; IC50 (p38α MAPK; bound given in μM, read-out: p38α MAPK IC50): > 5 µM
Cc1cccc(-c2nc(-c3ccc(O)cc3)[nH]c2C2=CCOCC2)c1 [IM-15, 4-(5(4)-(3,6-dihydro-2H-pyran-4-yl)-4(5)-(m-tolyl)-1H-imidazol-2-yl)phenol]	–	0.033 ± 0.002 µM	No inhibition at 1 μM	–	–	–	–	CK1δ inhibition at 1 μM (CK1δ): No inhibition at 1 μM
Cc1cccc(-c2nc(-c3ccc([S+](C)[O-])cc3)[nH]c2C2=CCOCC2)c1 (centres unmarked) [IM-16]	–	0.073 ± 0.021 µM	–	5610 nM	5610 ± 319 nM	2540 nM	2540 nM	–
Cc1cccc(-c2nc(-c3ccc([N+](=O)[O-])cc3)[nH]c2C2=CCOCC2)c1 [IM-17, 5(4)-(3,6-dihydro-2H-pyran-4-yl)-2-(4-nitrophenyl)-4(5)-(m-tolyl)-1H-imidazole]	17%	0.02 ± 0.002 µM	No inhibition at 1 μM	–	–	–	–	–
Cc1cccc(-c2nc(-c3c(F)cccc3F)[nH]c2C2=CCOCC2)c1 [IM-18, 2-(2,6-difluorophenyl)-5(4)-(3,6-dihydro-2H-pyran-4-yl)-4(5)-(m-tolyl)-1H-imidazole]	3%	0.014 ± 0.002 µM	–	–	1240 ± 437 nM	–	–	–
Cc1cccc(-c2nc(-c3ccccc3F)[nH]c2-c2ccncc2)c1 [IM-19]	–	0.0047 ± 0.0012 µM	–	150 nM	150 ± 89 nM	454 nM	454 ± 28 nM	–
Fc1ccc(-c2nc(-c3ccccc3F)[nH]c2C2=CCOCC2)cc1 [IM-20, 5(4)-(3,6-dihydro-2H-pyran-4-yl)-2-(2-fluorophenyl)-4(5)-(4-fluorophenyl)-1H-imidazole]	–	0.561 ± 0.141 µM	–	1140 nM	1140 ± 287 nM	1520 nM	1520 ± 825 nM	–
Cc1ccc(-c2nc(-c3ccccc3F)[nH]c2C2=CCOCC2)cc1 [IM-21, 5(4)-(3,6-dihydro-2H-pyran-4-yl)-2-(2-fluorophenyl)-4(5)-(p-tolyl)-1H-imidazole]	–	3.37 ± 0.824 µM	No inhibition at 1 μM	–	–	–	–	CK1δ inhibition at 1 μM (CK1δ): No inhibition at 1 μM
Fc1ccc(-c2nc(-c3ccc4ccccc4c3F)[nH]c2C2=CCOCC2)cc1 [IM-22, 5(4)-(3,6-dihydro-2H-pyran-4-yl)-2-(1-fluoronaphthalen-2-yl)-4(5)-(4-fluorophenyl)-1H-imidazole]	14%	2.31 ± 0.714 µM	No inhibition at 1 μM	–	–	–	–	–
Fc1ccc(-c2nc(-c3c(F)cccc3F)[nH]c2C2=CCOCC2)cc1 [IM-23, 2-(2,6-difluorophenyl)-5(4)-(3,6-dihydro-2H-pyran-4-yl)-4(5)-(4-fluorophenyl)-1H-imidazole]	–	0.055 ± 0.014 µM	–	751 nM	751 ± 168 nM	548 nM	548 ± 116 nM	–
Oc1ccc(-c2nc(-c3ccc(F)cc3)c(C3=CCOCC3)[nH]2)cc1 [IM-24, 4-(5(4)-(3,6-dihydro-2H-pyran-4-yl)-4(5)-(4-fluorophenyl)-1H-imidazol-2-yl)phenol]	14%	0.149 ± 0.033 µM	No inhibition at 1 μM	–	–	–	–	–
C[S+]([O-])c1ccc(-c2nc(-c3ccc(F)cc3)c(C3=CCOCC3)[nH]2)cc1 (centres unmarked) [IM-25]	–	0.454 ± 0.067 µM	–	5890 nM	5890 ± 180 nM	1490 nM	1490 ± 285 nM	–
Cc1cccc(-c2nc(-c3c(F)cccc3F)[nH]c2-c2ccncc2)c1 [IM-26]	–	0.0043 ± 0.0017 µM	–	44 nM	44 ± 5 nM	78 nM	78 ± 20 nM	–
Cc1cccc(-c2nc(-c3ccc(O)cc3)[nH]c2-c2ccncc2)c1 [IM-27]	–	0.0084 ± 0.003 µM	–	411 nM	411 ± 120 nM	1280 nM	1280 ± 828 nM	–
CCc1nc(-c2cccc(C)c2)c(-c2ccnc(NC(=O)c3ccccc3)c2)s1 [TAK 715, reference compound]	–	–	–	107 nM	–	–	–	–
COc1ccc([N+](=O)[O-])cc1-c1nc(-c2ccc(F)cc2)c(-c2ccncc2)[nH]1 [ZQX-32, 4-[2-(2-methoxy-5-nitrophenyl)-4(5)-(4-fluorophenyl)-1H-imidazol-5(4)-yl]pyridine]	–	–	–	–	–	–	–	Average GFP % (hESC3 Nkx2.5eGFP/w cells; Induction Day 2): 32.8%; Average GFP μm^2 (hESC3 Nkx2.5eGFP/w cells; Induction Day 2): 157.6 μm^2; Average Area μm^2 (hESC3 Nkx2.5eGFP/w cells; Induction Day 2): 483.6 μm^2; Average GFP % (hESC3 Nkx2.5eGFP/w cells; Induction Day 3): 4.6%; Average GFP μm^2 (hESC3 Nkx2.5eGFP/w cells; Induction Day 3): 41.0 μm^2; Average Area μm^2 (hESC3 Nkx2.5eGFP/w cells; Induction Day 3): 790.4 μm^2
